Measurements published in US20240228482A1, “COMPOUNDS, COMPOSITIONS AND METHODS OF TREATING CANCER” (HOTSPOT THERAPEUTICS, INC., priority 2021, published 2024).

Biological target: T1, CBL-B (Homo sapiens, UniProt Q13191)
T1 construct: GST
Test: CBL-B TR-FRET IC50 screening (E1/E2 ubiquitination, Biotin-Ubiquitin, Anti GST-Tb donor / Streptavidin-d2 acceptor)
Type: biochemical
Settings: CBL-B 10 nM final; 11-point titration from 100 uM; binned A-F; read-out: CBL-B TR-FRET activity IC50

T1 sequence (Q13191 whole entry): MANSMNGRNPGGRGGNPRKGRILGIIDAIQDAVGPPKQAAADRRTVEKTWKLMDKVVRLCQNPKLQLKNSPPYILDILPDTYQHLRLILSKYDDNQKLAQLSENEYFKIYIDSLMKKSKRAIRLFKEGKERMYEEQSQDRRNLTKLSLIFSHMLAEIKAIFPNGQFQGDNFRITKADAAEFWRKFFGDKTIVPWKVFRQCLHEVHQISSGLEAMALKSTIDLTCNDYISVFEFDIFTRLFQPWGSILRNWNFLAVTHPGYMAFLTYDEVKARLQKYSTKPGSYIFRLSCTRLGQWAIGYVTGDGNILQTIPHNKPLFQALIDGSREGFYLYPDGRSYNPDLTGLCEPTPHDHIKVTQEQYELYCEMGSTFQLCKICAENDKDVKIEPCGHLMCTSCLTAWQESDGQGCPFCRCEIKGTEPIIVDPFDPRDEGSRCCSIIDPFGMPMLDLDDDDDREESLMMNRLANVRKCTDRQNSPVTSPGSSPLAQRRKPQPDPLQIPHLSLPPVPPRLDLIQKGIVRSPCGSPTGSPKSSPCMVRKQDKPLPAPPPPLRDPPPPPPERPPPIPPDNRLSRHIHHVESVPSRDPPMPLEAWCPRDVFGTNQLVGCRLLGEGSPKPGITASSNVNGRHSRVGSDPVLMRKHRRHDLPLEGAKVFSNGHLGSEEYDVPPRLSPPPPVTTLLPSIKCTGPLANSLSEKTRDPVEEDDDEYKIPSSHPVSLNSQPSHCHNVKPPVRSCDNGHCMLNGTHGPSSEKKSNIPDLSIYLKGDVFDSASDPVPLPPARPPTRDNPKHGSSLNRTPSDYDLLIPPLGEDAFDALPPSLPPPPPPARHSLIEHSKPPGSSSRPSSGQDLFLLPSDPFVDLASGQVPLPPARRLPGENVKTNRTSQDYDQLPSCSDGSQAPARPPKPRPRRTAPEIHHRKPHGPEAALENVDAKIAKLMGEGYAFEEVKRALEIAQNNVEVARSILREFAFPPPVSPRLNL

IC50 [µM]	SMILES
> 10	C[C@H]1CCCN(Cc2cc(C(F)(F)F)c3cn(-c4cccc([C@@H](c5nncn5C)C5CCOCC5)c4)c(=O)n3c2)C1 (single isomer, unassigned) [Compound 359]
> 10	Cc1cn(CCO)nc1[C@@H](c1cccc(-n2cc3c(C(F)(F)F)cc(CN4CCC[C@H](C)C4)cn3c2=O)c1)C1CCC1 (single isomer, unassigned) [Compound 360]
> 10	Cc1cn(CCO)nc1[C@H](c1cccc(-n2cc3c(C(F)(F)F)cc(CN4CCC[C@H](C)C4)cn3c2=O)c1)C1CCC1 (single isomer, unassigned) [Compound 361]
1 to 3	COC1(C[C@@H](c2cccc(-n3cc4c(C(F)(F)F)cc(CN5CCC[C@H](C)C5)cn4c3=O)c2)c2nncn2C)CC1 (single isomer, unassigned) [Compound 365]
> 10	COC1(C[C@H](c2cccc(-n3cc4c(C(F)(F)F)cc(CN5CCC[C@H](C)C5)cn4c3=O)c2)c2nncn2C)CC1 (single isomer, unassigned) [Compound 366]
3 to 10	C[C@H]1CCCN(Cc2cc(C(F)(F)F)c3cn(-c4cccc([C@H](c5nncn5C)N5CCC5)c4)c(=O)n3c2)C1 (single isomer, unassigned) [Compound 367]
< 0.1	C[C@H]1CCCN(Cc2cc(C(F)(F)F)c3cn(-c4cccc([C@@H](c5nncn5C)N5CCC5)c4)c(=O)n3c2)C1 (single isomer, unassigned) [Compound 368]
> 10	Cc1sc(C#N)nc1[C@@H](c1cccc(-n2cc3c(C(F)(F)F)cc(CN4CCC[C@H](C)C4)cn3c2=O)c1)C1CCC1 (single isomer, unassigned) [Compound 369]
> 10	C[C@H]1CCCN(Cc2cc(C(F)(F)F)c3cn(-c4cccc([C@H](c5nc(C#N)cs5)C5CCC5)c4)c(=O)n3c2)C1 (single isomer, unassigned) [Compound 370]
> 10	Cc1sc(C#N)nc1[C@H](c1cccc(-n2cc3c(C(F)(F)F)cc(CN4CCC[C@H](C)C4)cn3c2=O)c1)C1CCC1 (single isomer, unassigned) [Compound 371]
> 10	C[C@H]1CCCN(Cc2cc(C(F)(F)F)c3cn(-c4cccc([C@@H](c5nc(C#N)cs5)C5CCC5)c4)c(=O)n3c2)C1 (single isomer, unassigned) [Compound 372]

Same assay, conditions: second part of Table 2 (head 'Patent Cmpd No / Updated Activity'); same CBL-B TR-FRET IC50 bins A-F; read-out: Updated Activity

IC50 [µM]	SMILES
> 10	Cc1cnoc1[C@H](c1cccc(-n2cc3c(C(F)(F)F)cc(CN4CCC[C@H](C)C4)cn3c2=O)c1)C1CCC1 (single isomer, unassigned) [Compound 383]
> 10	Cc1cnoc1[C@@H](c1cccc(-n2cc3c(C(F)(F)F)cc(CN4CCC[C@H](C)C4)cn3c2=O)c1)C1CCC1 (single isomer, unassigned) [Compound 384]
> 10	COCc1nc([C@@H](c2cccc(-n3cc4c(C(F)(F)F)cc(CN5CCC[C@H](C)C5)cn4c3=O)c2)C2CCC2)c(C)s1 (single isomer, unassigned) [Compound 385]
> 10	COCc1nc([C@H](c2cccc(-n3cc4c(C(F)(F)F)cc(CN5CCC[C@H](C)C5)cn4c3=O)c2)C2CCC2)c(C)s1 (single isomer, unassigned) [Compound 386]
> 10	COC1CN([C@H](c2cccc(-n3cc4c(C(F)(F)F)cc(CN5CCC[C@H](C)C5)cn4c3=O)c2)c2nncn2C)C1 (single isomer, unassigned) [Compound 387]
> 10	COC1CN([C@@H](c2cccc(-n3cc4c(C(F)(F)F)cc(CN5CCC[C@H](C)C5)cn4c3=O)c2)c2nncn2C)C1 (single isomer, unassigned) [Compound 388]
> 10	COCc1csc([C@@H](c2cccc(-n3cc4c(C(F)(F)F)cc(CN5CCC[C@H](C)C5)cn4c3=O)c2)C2CCC2)n1 (single isomer, unassigned) [Compound 389]
> 10	COCc1csc([C@H](c2cccc(-n3cc4c(C(F)(F)F)cc(CN5CCC[C@H](C)C5)cn4c3=O)c2)C2CCC2)n1 (single isomer, unassigned) [Compound 390]
> 10	Cc1sc(CO)nc1[C@@H](c1cccc(-n2cc3c(C(F)(F)F)cc(CN4CCC[C@H](C)C4)cn3c2=O)c1)C1CCC1 (single isomer, unassigned) [Compound 391]
> 10	Cc1sc(CO)nc1[C@H](c1cccc(-n2cc3c(C(F)(F)F)cc(CN4CCC[C@H](C)C4)cn3c2=O)c1)C1CCC1 (single isomer, unassigned) [Compound 392]
< 0.1	COC(=O)N1CCC[C@H](c2cc(C(F)(F)F)c3cn(-c4cccc([C@H](c5nncn5C)C5CCC5)c4)c(=O)n3c2)C1 (single isomer, unassigned) [Compound 393]
0.1 to 0.3	COC(=O)N1CCC[C@@H](c2cc(C(F)(F)F)c3cn(-c4cccc([C@H](c5nncn5C)C5CCC5)c4)c(=O)n3c2)C1 (single isomer, unassigned) [Compound 394]
0.1 to 0.3	CC(=O)N1CCC[C@H](c2cc(C(F)(F)F)c3cn(-c4cccc([C@H](c5nncn5C)C5CCC5)c4)c(=O)n3c2)C1 (single isomer, unassigned) [Compound 396]
0.1 to 0.3	CC(=O)N1CCC[C@@H](c2cc(C(F)(F)F)c3cn(-c4cccc([C@H](c5nncn5C)C5CCC5)c4)c(=O)n3c2)C1 (single isomer, unassigned) [Compound 397]
< 0.1	COCC[C@H](c1cccc(-n2cc3c(C(F)(F)F)cc(CN4CCC[C@H](C)C4)cn3c2=O)c1)c1nncn1C (single isomer, unassigned) [Compound 399]
> 10	COCC[C@@H](c1cccc(-n2cc3c(C(F)(F)F)cc(CN4CCC[C@H](C)C4)cn3c2=O)c1)c1nncn1C (single isomer, unassigned) [Compound 400]
> 10	C[C@H]1CCCN(Cc2cc(C(F)(F)F)c3cn(-c4cccc([C@@H](CC5(C#N)CC5)c5nncn5C)c4)c(=O)n3c2)C1 (single isomer, unassigned) [Compound 405]
0.1 to 0.3	C[C@H]1CCCN(Cc2cc(C(F)(F)F)c3cn(-c4cccc([C@H](c5nncn5C)N5CC(O)C5)c4)c(=O)n3c2)C1 (single isomer, unassigned) [Compound 406]
> 10	C[C@H]1CCCN(Cc2cc(C(F)(F)F)c3cn(-c4cccc([C@@H](c5nncn5C)N5CC(O)C5)c4)c(=O)n3c2)C1 (single isomer, unassigned) [Compound 407]

IC50 [µM]	SMILES
< 0.1	COC(=O)N1CC[C@H](c2cc(C(F)(F)F)c3cn(-c4cccc([C@H](c5nncn5C)C5CCC5)c4)c(=O)n3c2)C1 (single isomer, unassigned) [Compound 408]
< 0.1	COC(=O)N1CC[C@@H](c2cc(C(F)(F)F)c3cn(-c4cccc([C@H](c5nncn5C)C5CCC5)c4)c(=O)n3c2)C1 (single isomer, unassigned) [Compound 409]
> 10	COCC(COC)[C@H](c1cccc(-n2cc3c(C(F)(F)F)cc(CN4CCC[C@H](C)C4)cn3c2=O)c1)c1nncn1C (single isomer, unassigned) [Compound 410]
> 10	COCC(COC)[C@@H](c1cccc(-n2cc3c(C(F)(F)F)cc(CN4CCC[C@H](C)C4)cn3c2=O)c1)c1nncn1C (single isomer, unassigned) [Compound 411]
< 0.1	C[C@H]1CCCN(Cc2cc(C(F)(F)F)c3cn(-c4cccc([C@]5(c6nncn6C)C[C@@](C)(O)C5)c4)c(=O)n3c2)C1 (single isomer, unassigned) [Compound 417]
3 to 10	C[C@H]1CCCN(Cc2cc(C(F)(F)F)c3cn(-c4cccc([C@]5(c6nncn6C)C[C@](C)(O)C5)c4)c(=O)n3c2)C1 (single isomer, unassigned) [Compound 418]
> 10	Cc1cn(CC#N)nc1[C@@H](c1cccc(-n2cc3c(C(F)(F)F)cc(CN4CCC[C@H](C)C4)cn3c2=O)c1)C1CCC1 (single isomer, unassigned) [Compound 419]
> 10	Cc1cn(CC#N)nc1[C@H](c1cccc(-n2cc3c(C(F)(F)F)cc(CN4CCC[C@H](C)C4)cn3c2=O)c1)C1CCC1 (single isomer, unassigned) [Compound 420]
< 0.1	CC(=O)N1CC[C@H](c2cc(C(F)(F)F)c3cn(-c4cccc([C@H](c5nncn5C)C5CCC5)c4)c(=O)n3c2)C1 (single isomer, unassigned) [Compound 421]
< 0.1	CC(=O)N1CC[C@@H](c2cc(C(F)(F)F)c3cn(-c4cccc([C@H](c5nncn5C)C5CCC5)c4)c(=O)n3c2)C1 (single isomer, unassigned) [Compound 422]
> 10	CCn1cnnc1[C@@H](c1cccc(-n2cc3c(C(F)(F)F)cc(CN4CCC[C@H](C)C4)cn3c2=O)c1)C1CCC1 (single isomer, unassigned) [Compound 423]
> 10	C[C@H]1CCCN(Cc2cc(C(F)(F)F)c3cn(-c4cccc([C@H](c5nncn5C5CC5)C5CCC5)c4)c(=O)n3c2)C1 (single isomer, unassigned) [Compound 424]
> 10	CC(C)n1cnnc1[C@@H](c1cccc(-n2cc3c(C(F)(F)F)cc(CN4CCC[C@H](C)C4)cn3c2=O)c1)C1CCC1 (single isomer, unassigned) [Compound 425]
> 10	CCn1cnnc1[C@H](c1cccc(-n2cc3c(C(F)(F)F)cc(CN4CCC[C@H](C)C4)cn3c2=O)c1)C1CCC1 (single isomer, unassigned) [Compound 426]
> 10	C[C@H]1CCCN(Cc2cc(C(F)(F)F)c3cn(-c4cccc([C@@H](c5nncn5C5CC5)C5CCC5)c4)c(=O)n3c2)C1 (single isomer, unassigned) [Compound 427]
> 10	CC(C)n1cnnc1[C@H](c1cccc(-n2cc3c(C(F)(F)F)cc(CN4CCC[C@H](C)C4)cn3c2=O)c1)C1CCC1 (single isomer, unassigned) [Compound 428]
> 10	C[C@H]1CCCN(Cc2cc(C(F)(F)F)c3cn(-c4cccc([C@H](c5nncn5C)[C@H]5C[C@H](O)C5)c4)c(=O)n3c2)C1 (single isomer, unassigned) [Compound 435]
> 10	C[C@H]1CCCN(Cc2cc(C(F)(F)F)c3cn(-c4cccc([C@@H](c5nncn5C)[C@H]5C[C@@H](O)C5)c4)c(=O)n3c2)C1 (single isomer, unassigned) [Compound 436]
